Laboratory results from patent publication US8946219B2, “Combination therapy with a compound acting as a platelet ADP receptor inhibitor” (Portola Pharmaceuticals, Inc., priority 2007, dated 2015).

Columns and labels:
[1] = tested on: thrombus formation under arterial shear conditions; experiment: Perfusion assay, blood collected in bivalirudin, type III collagen, 1600 s^−1 (Example 8); format: cell-based; conditions: bivalirudin alone, 12 μg/mL
Description: As an example of additive antithrombotic benefit achieved when Compound A was combined with a direct thrombin inhibitor, such as bivalirudin, in the following assay, blood was collected in 12 μg/mL bivalirudin (standard therapeutic concentration), incubated with various concentrations of Compound A (0.1, 1 or 10 μM) for 20 mins in the presence of rhodamine 6G (which fluorescently labels platelets), followed by perfusion through a glass capillary coated with collagen (type III) at a fixed shear rate (1600 s^−1). […] FIG. 7 illustrates the combined antithrombotic benefit achieved by the combination of Compound A and bivalirudin.

[2] = tested on: thrombosis on mouse mesenteric arteries; experiment: Mouse mesenteric artery thrombosis model, 5% FeCl3 (Example 13, present tense); format: in vivo, C57B16J mice; conditions: for antithrombotic activity in the intravital microscopy thrombosis model in mice: other factor Xa inhibitors, expected
Description: Thrombosis on mouse mesenteric arteries (shear rate 1000-1300 s^−1) is performed and recorded as previously described with minor modifications, as described in Andre, P. et al., Anticoagulants (thrombin inhibitors) and aspirin synergize with P2Y12 receptor antagonism in thrombosis. Circulation, 2003, 108(21):2697-703. Platelets are labeled in situ using rhodamine 6G (0.2 mg/mL) administered through the tail vein 10 mins before visualization of the arteries. Vessel-wall injury is triggered by a 1×1-mm filter paper saturated with a 5% FeCl3 solution. After 5 minutes, the filter paper is removed and mesenteric arteries rinsed with warmed saline (37° C.). Platelet vessel-wall interactions are recorded for 40 additional mins or until full occlusion occurs and persists for more than 40 seconds. C57B16J mice are orally gavaged with vehicle control, Compound A (7.5, 20, 60 mg/kg) or betrixaban (4, 40, 400 mg/kg) two hours prior to vascular injury. Thrombosis is analyzed in real time using Simple PCI software, as described in Andre, P. et al., P2Y12 regulates platelet adhesion/activation, thrombus growth, and thrombus stability in injured arteries. J Clin Invest, 2003, 112(3):398-406. The fluorescence intensity is recorded at a rate of 2 Hz for 40 minutes and plotted over time. Time to occlusion (cessation of blood flow) is analyzed.

[3] = tested on: thrombin generation in platelet rich plasma; experiment: Platelet-initiated thrombin generation assay (Example 5); format: cell-based, human
Description: Whole blood from healthy volunteer donors was collected by venipuncture and drawn into 3.2% trisodium citrate (Vacutainer, Becton Dickinson) for anticoagulation. Platelet rich plasma was prepared by centrifugation and the platelet count was adjusted to 150,000/μL. In a 96 well plate, platelets were activated by addition of convulxin (200 ng/mL) and incubation at 37° C. for 3 mins. Subsequent to platelet activation, thrombin generation was initiated by addition of 23 pM tissue factor (Innovin, Dade Behring) and 15 mM calcium. Thrombin activity was monitored by cleavage of the specific fluorogenic substrate (Z-gly-gly-arg-AMC, Bachem) in a fluorescence plate reader.

[4] = tested on: thrombosis on mouse mesenteric arteries; experiment: Mouse mesenteric artery thrombosis model, intravital microscopy, 10% FeCl3 (Example 14); format: in vivo, C57B16J mice
Description: Thrombosis on mouse mesenteric arteries (shear rate 1000-1300 s^−1) was performed and recorded as previously described with minor modifications. (Andre, P., et al., Anticoagulants (thrombin inhibitors) and aspirin synergize with P2Y12 receptor antagonism in thrombosis. Circulation, 2003. 108(21): p. 2697-703.) Platelets were labeled in situ using rhodamine 6G (0.2 mg/mL) administered through the tail vein 10 min before visualization of the arteries. Vessel-wall injury was triggered by a 1×1-mm filter paper saturated with a 10% FeCl3 solution. After 5 minutes, the filter paper was removed and mesenteric arteries rinsed with warmed saline (37° C.). Platelet vessel-wall interactions were recorded for 40 additional min or until full occlusion occurred and persisted for more than 40 seconds. C57B16J mice were orally gavaged with vehicle control, compound A (0.83, 2.5, 7.5, 20, 60 mg/kg) or betrixaban (2, 4, 10 mg/kg) two hours prior to vascular injury. Thrombosis was analyzed in real time using Simple PCI software. (Andre, P., et al., P2Y12 regulates platelet adhesion/activation, thrombus growth, and thrombus stability in injured arteries. J Clin Invest, 2003. 112(3): p. 398-406.) The fluorescence intensity was recorded at a rate of 2 Hz for 40 minutes and plotted over time. Time to occlusion (cessation of blood flow) is analyzed.
Plasma concentrations of Compound A and betrixaban were determined on blood draw collected 2 min post-occlusion or 42 min after start of vascular injury.

[5] = tested on: platelet thrombus formation on collagen-coated capillary (type I collagen); experiment: Perfusion assay, non-anticoagulated whole blood, type I collagen, 1000 s^−1 (Example 6); format: cell-based, human; conditions: Compound A alone at 10 μM
Description: After perfusion the size of the platelet thrombus was measured by fluorescence.

[6] = tested on: whole human blood perfused over type III collagen (thrombus formation); experiment: Real time perfusion chamber thrombosis assay (Example 3); format: cell-based; conditions: read-out: inhibition of thrombosis
Excerpt: The real time perfusion chamber assay couples the features of animal thrombosis models that use intravital microscopy to those of perfusion chamber technology in order to produce an assay suited to monitoring drug activity in clinical trials. This assay perfuses whole blood through capillaries at arterial rates of shear, exposing the blood to thrombogenic type III collagen. Platelets are labeled with a fluorescent dye (rhodamine 6 G) prior to perfusion such that analysis of the thrombus deposition can be performed by measurement of fluorescence intensity inside the perfusion chamber. Quantification is performed by analysis of the thrombus height (fluorescence intensity (number of pixels)/total area (μm^2)).

[7] = tested on: ADP induced platelet aggregation in human platelet rich plasma; experiment: ADP induced platelet aggregation; format: cell-based
[8] = betrixaban 10 mg/kg, oral gavage

**Q.** How did the “inhibition of the thrombotic process” value [1] turn out when bivalirudin was run?
**A.** Its value is “did not significantly inhibit the thrombotic process”.

**Q.** How did the non-effective doses ([2]; betrixaban) turn out when COc1ccc(NC(=O)c2ccc(C(=N)N(C)C)cc2)c(C(=O)Nc2ccc(Cl)cn2)c1 [betrixaban, [2-({4-[(dimethylamino)iminomethyl]phenyl}carbonylamino)-5-methoxyphenyl]-N-(5-chloro(2-pyridyl))carboxamide] was run?
**A.** The non-effective doses was “below 100 ng/mL”.

**Q.** And the “concentration adequate for equivalent inhibition of thrombin generation as a therapeutic anticoagulant (Pentasaccharide fondaparinux)” value [3]?
**A.** The value was 31.25 nM.

**Q.** And the “time for appearance of first thrombus” value [4, 8]?
**A.** The value was “significantly delayed”.

**Q.** And the time to occlusion [4, 8]?
**A.** The time to occlusion was “significantly delayed”.

**Q.** What about the “effect in the thrombosis model” value ([4]; betrixaban 2 and 4 mg/kg, oral gavage) of the same compound?
**A.** Its value is “non-effective”.

**Q.** Which “antithrombotic activity in the intravital microscopy thrombosis model in mice” value [2] does the source give for O=C(NC[C@H]1CN(c2ccc(N3CCOCC3=O)cc2)C(=O)O1)c1ccc(Cl)s1 [rivaroxaban, (5S)-5-chloro-N-((2-oxo-3-(4-(3-oxomorpholino)phenyl)oxazolidin-5-yl)methyl)thiophene-2-carboxamide] here?
**A.** The value was “significant antithrombotic activity”.

**Q.** COc1ccc(-n2nc(C(N)=O)c3c2C(=O)N(c2ccc(N4CCCCC4=O)cc2)CC3)cc1 [apixaban, 1-(4-methoxyphenyl)-7-oxo-6-(4-(2-oxopiperidin-1-yl)phenyl)-3a,4,5,6,7,7a-hexahydro-1H-pyrazolo[3,4-c]pyridine-3-carboxamide] was tested. Which “antithrombotic activity in the intravital microscopy thrombosis model in mice” value [2] did it give?
**A.** The value was “significant antithrombotic activity”.

**Q.** With CNc1cc2[nH]c(=O)n(-c3ccc(NC(=O)NS(=O)(=O)c4ccc(Cl)s4)cc3)c(=O)c2cc1F [Compound A] as the compound, how does the platelet thrombus size [5] read?
**A.** Its platelet thrombus size is “no significant effect”.

**Q.** What about the inhibition at 1.1 µM [6] of the same compound?
**A.** The inhibition at 1.1 µM was 23%.

**Q.** And the “concentration capable of maximal inhibition of platelet aggregation” value [7]?
**A.** Its value is 10 µM.

**Q.** And the IC50 ([7]; Platelet, platelets derived from human donors, n=19, read-out: half maximal inhibition of ADP induced platelet aggregation)?
**A.** The IC50 was 4.7 ± 5.1 µM.

**Q.** And the “plasma concentration that did not prevent occlusion” value ([4]; PK/PD, FIG. 13)?
**A.** Its value is “below 1 μg/mL”.

**Q.** What about the “plasma concentrations of non-effective doses” value ([4]; PK/PD, FIG. 13) of the same compound?
**A.** Its value is “below 200 ng/mL”.

**Q.** And the “plasma levels that prevented vascular occlusion” value ([4]; PK/PD, FIG. 13)?
**A.** The value was greater than 1 µg/mL.
